Reference: patent US9255090B2, “Heterocyclyl derivatives and their use as prostaglandin D2 receptor modulators” (Actelion Pharmaceuticals Ltd., priority 2012, dated 2016)

Columns and labels:
eosinophils = assay: Eosinophil shape change assay with human plasma; format: cell-based; conditions: Homo sapiens, Eosinophil, human plasma (50%), PGD2 100 nM activation, antagonistic activity
Summary of the method: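 Human polymorphonuclear cells stained with anti-CD49d-APC, combined with compound-preincubated human plasma (50% of final volume, 4×10^6 cells/ml) for 10 min at 37° C., then stimulated 5 min with 100 nM PGD2 and fixed. Flow cytometry scored percent eosinophils with increased forward scatter.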

hCRTH2 receptor = hCRTH2 receptor (Homo sapiens (Human), UniProt Q9Y5Y4); assay: hCRTH2 receptor membranes radioligand (3H-PGD2) displacement assay; format: binding; conditions: 3H-PGD2 radioligand displacement, HEK293-hCRTH2 membranes
Chain of hCRTH2 receptor (Q9Y5Y4 whole entry): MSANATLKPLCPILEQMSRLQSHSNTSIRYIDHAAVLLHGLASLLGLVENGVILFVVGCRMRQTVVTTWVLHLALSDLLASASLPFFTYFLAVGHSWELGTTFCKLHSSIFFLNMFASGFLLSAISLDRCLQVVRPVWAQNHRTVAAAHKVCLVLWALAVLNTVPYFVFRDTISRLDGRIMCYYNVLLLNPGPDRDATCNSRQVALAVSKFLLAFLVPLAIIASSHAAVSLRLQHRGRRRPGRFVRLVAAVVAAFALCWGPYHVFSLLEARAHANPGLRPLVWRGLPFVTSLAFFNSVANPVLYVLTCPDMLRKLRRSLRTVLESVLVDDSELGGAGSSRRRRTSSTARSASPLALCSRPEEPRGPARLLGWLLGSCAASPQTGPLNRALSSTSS
Summary of the method: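 Compound was first mixed with buffer, then 3H-PGD2 was added at 2.5 nM, and the reaction was started with hCRTH2 membranes from HEK293 cells at 20 μg/well. After 90 min at room temperature, mixtures were filtered and washed with ice-cold buffer, and retained radioactivity was counted.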

Structure (SMILES)	IC50 (eosinophils)	IC50 (hCRTH2 receptor)
CCOc1ccc(CC(=O)O)cc1-c1ccc(F)c2c1CN(C(=O)OCc1cc(Cl)ccc1F)CC2 [Example 402, 8-(5-Carboxymethyl-2-ethoxy-phenyl)-5-fluoro-3,4-dihydro-1H-isoquinoline-2-carboxylic acid 5-chloro-2-fluoro-benzyl ester]	20 nM	4.3 nM
CCOc1ccc(CC(=O)O)cc1-c1ccc(F)c2c1CN(C(=O)OCc1ccc(F)cc1F)CC2 [Example 403, 8-(5-Carboxymethyl-2-ethoxy-phenyl)-5-fluoro-3,4-dihydro-1H-isoquinoline-2-carboxylic acid 2,4-difluoro-benzyl ester]	15 nM	1.7 nM
CCOc1cc(CC(=O)O)ccc1-c1ccc(F)c2c1CN(C(=O)OCc1cccc(F)c1)CC2 [Example 405, 8-(4-Carboxymethyl-2-ethoxy-phenyl)-5-fluoro-3,4-dihydro-1H-isoquinoline-2-carboxylic acid 3-fluoro-benzyl ester]	20 nM	2.7 nM
O=C(O)Cc1ccc(OC(F)F)c(-c2ccc(F)c3c2CN(C(=O)OCc2ccccc2)CC3)c1 [Example 412, 8-(5-Carboxymethyl-2-difluoromethoxy-phenyl)-5-fluoro-3,4-dihydro-1H-isoquinoline-2-carboxylic acid benzyl ester]	47 nM	1.8 nM
O=C(O)Cc1ccc(OCC(F)F)c(-c2ccc(F)c3c2CN(C(=O)OCc2ccccc2)CC3)c1 [Example 413, 8-[5-Carboxymethyl-2-(2,2-difluoro-ethoxy)-phenyl]-5-fluoro-3,4-dihydro-1H-isoquinoline-2-carboxylic acid benzyl ester]	44 nM	0.8 nM
CC(C)(C)Oc1ccc(CC(=O)O)cc1-c1ccc(F)c2c1CN(C(=O)OCc1ccccc1)CC2 [Example 419, 8-(2-tert-Butoxy-5-carboxymethyl-phenyl)-5-fluoro-3,4-dihydro-1H-isoquinoline-2-carboxylic acid benzyl ester]	35 nM	2.8 nM
CN(C)c1ccc(CC(=O)O)cc1-c1ccc(F)c2c1CN(C(=O)OCc1ccccc1)CC2 [Example 420, 8-(5-Carboxymethyl-2-dimethylamino-phenyl)-5-fluoro-3,4-dihydro-1H-isoquinoline-2-carboxylic acid benzyl ester]	17 nM	2.4 nM
O=C(O)Cc1ccc(OCC(F)(F)F)c(-c2ccc(F)c3c2CN(C(=O)OCc2ccccc2)CC3)c1 [Example 421, 8-[5-Carboxymethyl-2-(2,2,2-trifluoro-ethoxy)-phenyl]-5-fluoro-3,4-dihydro-1H-isoquinoline-2-carboxylic acid benzyl ester]	16 nM	3.8 nM
CC(C)Oc1ccc(CC(=O)O)cc1-c1ccc(C#N)c2c1CN(C(=O)OCc1ccccc1)CC2 [Example 431, 8-(5-Carboxymethyl-2-isopropoxy-phenyl)-5-cyano-3,4-dihydro-1H-isoquinoline-2-carboxylic acid benzyl ester]	47 nM	1.4 nM

Stronger by IC50 (eosinophils), values ahead:

IC50 (eosinophils)	IC50 (hCRTH2 receptor)	Structure (SMILES)
14 nM	3.7 nM	CCOc1ccc(CC(=O)O)cc1-c1ccc(F)c2c1CN(C(=O)NCc1ccccc1)CC2 [Example 438, [3-(2-Benzylcarbamoyl-5-fluoro-1,2,3,4-tetrahydro-isoquinolin-8-yl)-4-ethoxy-phenyl]-acetic acid]
13 nM	26 nM	CCOc1cc(CC(=O)O)ccc1-c1ccc(F)c2c1CN(C(=O)OCc1ccccc1)CC2 [Example 410, 8-(4-Carboxymethyl-2-ethoxy-phenyl)-5-fluoro-3,4-dihydro-1H-isoquinoline-2-carboxylic acid benzyl ester]
13 nM	1 nM	O=C(O)Cc1ccc(-c2ccc(F)c3c2CN(C(=O)OCc2ccccc2)CC3)c(OCC(F)(F)F)c1 [Example 411, 8-[4-Carboxymethyl-2-(2,2,2-trifluoro-ethoxy)-phenyl]-5-fluoro-3,4-dihydro-1H-isoquinoline-2-carboxylic acid benzyl ester]
10 nM	2.3 nM	CCOc1cc(CC(=O)O)ccc1-c1ccc(F)c2c1CN(C(=O)OCc1ccc(F)cc1)CC2 [Example 404, 8-(4-Carboxymethyl-2-ethoxy-phenyl)-5-fluoro-3,4-dihydro-1H-isoquinoline-2-carboxylic acid 4-fluoro-benzyl ester]
10 nM	7.7 nM	CCOc1cc(CC(=O)O)ccc1-c1ccc(F)c2c1CN(C(=O)OCc1ccccc1F)CC2 [Example 406, 8-(4-Carboxymethyl-2-ethoxy-phenyl)-5-fluoro-3,4-dihydro-1H-isoquinoline-2-carboxylic acid 2-fluoro-benzyl ester]
9 nM	2.1 nM	CCOc1cc(CC(=O)O)ccc1-c1ccc(F)c2c1CN(C(=O)OCc1cc(F)ccc1F)CC2 [Example 407, 8-(4-Carboxymethyl-2-ethoxy-phenyl)-5-fluoro-3,4-dihydro-1H-isoquinoline-2-carboxylic acid 2,5-difluoro-benzyl ester]
8 nM	2 nM	CCOc1cc(CC(=O)O)ccc1-c1ccc(F)c2c1CN(C(=O)OCc1cc(Cl)ccc1F)CC2 [Example 408, 8-(4-Carboxymethyl-2-ethoxy-phenyl)-5-fluoro-3,4-dihydro-1H-isoquinoline-2-carboxylic acid 5-chloro-2-fluoro-benzyl ester]
8 nM	8.5 nM	O=C(O)Cc1ccc(OCCF)c(-c2ccc(F)c3c2CN(C(=O)OCc2ccccc2)CC3)c1 [Example 422, 8-[5-Carboxymethyl-2-(2-fluoro-ethoxy)-phenyl]-5-fluoro-3,4-dihydro-1H-isoquinoline-2-carboxylic acid benzyl ester]
5 nM	3.9 nM	CCOc1cc(CC(=O)O)ccc1-c1ccc(F)c2c1CN(C(=O)OCc1ccc(F)cc1F)CC2 [Example 409, 8-(4-Carboxymethyl-2-ethoxy-phenyl)-5-fluoro-3,4-dihydro-1H-isoquinoline-2-carboxylic acid 2,4-difluoro-benzyl ester]
